Test results reported in US7427488B2, “Purified and isolated platelet calcium channel nucleic acids and polypeptides and therapeutic and screening methods using same” (The University of North Carolina at Chapel Hill, priority 2000, dated 2008).

Assays:
Format in all cases: cell-based, human
[1] = test system: platelet VDCC (thrombin-activated platelets); assay: Flow cytometric analysis of [Ca2+]i in thrombin-activated platelets; conditions: for effect on [Ca2+]i (in words): thrombin-activated platelets
Method: The conduction of calcium by the VDCC is measured in vitro by measuring changes in cytoplasmic free (ionized) calcium concentrations. Cytoplasmic calcium concentrations are measured by performing flow cytometric analysis with the calcium indicators fluo-3 and fura red as detailed by Novak & Rabinovitch, 1994. Briefly, platelets in whole blood, platelet rich plasma or biological buffers are incubated with esters of fluo-3 and fura red, and then aspirated into the flow cytometric instrument for measurement of calcium-dependent fluorescent changes. Cytoplasmic calcium concentrations are calculated from the ratio or fluo-3 and fura red relative fluorescence intensities. Experiments are performed with increasing doses of VDCC inhibitors with platelets that are in the resting state and subjected to different concentrations of activation agonists and VDCC antagonists and agonists.
(§1) Human blood was collected in acid-citrate-dextrose (ACD, 85 mM trisodium citrate, 70 mM citric acid, 111 mM dextrose). Platelet rich plasma (PRP) was prepared by centrifugation of anticoagulated blood at 25° C. for 8 minutes at 200×g. Platelets were separated from plasma via gel filtration by applying the PRP to a 2.7×10 cm SEPHAROSE™ CL4B column (Amersham Biosciences Corp., Piscataway, N.J., United States of America) equilibrated with modified Tyrode's buffer (145 mM NaCl, 4 mM KCl, 1 mM MgSO4, 6 mM glucose, 10 mM Na-HEPES). Gel filtered platelets were collected and adjusted to a concentration of about 200×10^6 platelets/ml.
PRP (prepared as above) was incubated with 5 μM Fura 2-AM and 5 μM Fluo 3-AM for 20 minutes at 37° C. […] Thrombin was then added to a final concentration of 0.0167, 0.05, 0.167 or 0.5 units/ml and mean cell fluorescence (MCF) of Fura 2 and Fluo 3 was measured at 1 minute on a FACSCAN™ (BD Biosciences, San Jose, Calif., United States of America) flow cytometer as per Novak & Rabinovitch, 1994. The ratio of fluo 3 to fura 2 MCF was calculated and compared to controls for each experimental condition.

gel-filtered platelets = assay: Platelet aggregation (Chrono-log aggregometer); conditions: 50 nM nitrendipine or 5 μM Bay K(+); various concentrations of thrombin
Method: as §1
Gel-filtered platelets at about 200×10^6/ml were incubated for 2 hours with 1:200 MA3-920, 50 nM nitrendipine, 5 μM Bay K(−), or 5 μM Bay K(+). […] Results were analyzed with the AGGROLINK® software (Chrono-log Corp.).

[2] = test system: platelet surface activation markers; assay: Cell surface markers of platelet activation, overall statement; conditions: Annexin V, PAC1, CD62
Method: as §1
(§2) Platelets were stained for cell surface activation markers according to “Flow Cytometric Analysis of Platelets”. Monoclonal Antibodies Source Book. Vol. Section 2.19 (Becton, Dickinson And Co., Franklin Lakes, N.J., United States of America). Briefly, after treatment with agonists or antagonists as above, cells were activated with 0.167 units/ml thrombin (concentration chosen based on [Ca^2+ ]i studies) for 1 minute in the presence of 1 μM CaCl2, and then stained with the combination of CD61 PerCP and Annexin V FITC, or PAC-1 FITC, CD61 PerCP, and CD62 PE for 15 minutes at room temperature in the dark. […] Cells were analyzed on a FACSCAN™ flow cytometer. Mean cell fluorescence (MCF) was compared to control platelets (thrombin only) for each experimental condition. […]

[3] = test system: Annexin-V (phosphatidylserine) on platelet surface; assay: Cell surface markers of platelet activation by flow cytometry: Annexin V binding; conditions: thrombin-activated platelets
Method: as §1, §2

[4] = test system: PAC1 (activated GPIIb/IIIa) on platelet surface; assay: Cell surface markers of platelet activation by flow cytometry: PAC1; conditions: thrombin-activated platelets
Method: as §1, §2

[5] = test system: CD62 (PADGEM; P-selectin) on platelet surface; assay: Cell surface markers of platelet activation by flow cytometry: CD62; conditions: thrombin-activated platelets
Method: as §1, §2

SMILES | effect on [Ca2+]i (in words) [1] | effect on (the rate of) platelet aggregation (in words) (gel-filtered platelets) | effect on platelet surface activation markers (in words) [2] | [Ca2+]i ([1]; 5 μM, at one minute, thrombin 0.0167 to 0.5 units/ml (FIG. 8)) | increase in annexin V binding [3] [%] | decrease in PAC1 [4] [%] | decrease in CD62 [5] [%] | reduction (decrease) in annexin V binding / PS exposure [3] [%]
COC(=O)C1=C(C)NC(C)=C([N+](=O)[O-])[C@@H]1c1ccccc1C(F)(F)F [Bay K (+)] | no significant effect | no significant effect | no significant effect |  |  |  |  | 
COC(=O)C1=C(C)NC(C)=C([N+](=O)[O-])[C@H]1c1ccccc1C(F)(F)F [Bay K (−)] | trend towards increased |  |  | increase | 56 | 9 | 4 | 
CCOC(=O)C1=C(C)NC(C)=C(C(=O)OC)C1c1cccc([N+](=O)[O-])c1 (stereo not shown) [Nitrendipine, nitrendipine] |  | no effect |  |  |  |  |  | 22
